Reference: PubChem BioAssay (NCI)
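GI50 = concentration required for 50% inhibition of growth. TGI marks complete inhibition of growth.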

Columns and labels:
Test in all cases: NCI tumour cell line growth inhibition, 384-well format
786-0 renal = tested on: 786-0 renal
A498 renal = tested on: A498 renal
A549 NSCLC = tested on: A549 NSCLC
ACHN renal = tested on: ACHN renal
BT-549 breast = tested on: BT-549 breast
CAKI-1 renal = tested on: CAKI-1 renal
CCRF-CEM leukemia = tested on: CCRF-CEM leukemia
COLO 205 colon = tested on: COLO 205 colon
DU-145 prostate = tested on: DU-145 prostate
EKVX NSCLC = tested on: EKVX NSCLC
HCC-2998 colon = tested on: HCC-2998 colon
HCT-15 colon = tested on: HCT-15 colon
HL-60(TB) leukemia = tested on: HL-60(TB) leukemia
HOP-62 NSCLC = tested on: HOP-62 NSCLC
HOP-92 NSCLC = tested on: HOP-92 NSCLC
HS 578T breast = tested on: HS 578T breast
HT29 colon = tested on: HT29 colon
IGROV1 ovarian = tested on: IGROV1 ovarian
K-562 leukemia = tested on: K-562 leukemia
KM12 colon = tested on: KM12 colon
LOX IMVI melanoma = tested on: LOX IMVI melanoma
M14 melanoma = tested on: M14 melanoma
MALME-3M melanoma = tested on: MALME-3M melanoma
MCF7 breast = tested on: MCF7 breast
MDA-MB-231 breast = tested on: MDA-MB-231 breast
MDA-MB-435 melanoma = tested on: MDA-MB-435 melanoma
MDA-MB-468 breast = tested on: MDA-MB-468 breast
MOLT-4 leukemia = tested on: MOLT-4 leukemia
NCI-H226 lung = tested on: NCI-H226 lung

Compound: CCC(CC)n1cnc2c(-c3cnc(N)cn3)nc(N3CC4CCC(C3)O4)nc21
- GI50 ([…]-0 renal): 2.75 µM
- TGI (786-0 renal): > 100 µM
- GI50 (A498 renal): 0.173 µM
- TGI (A498 renal): 1.32 µM
- GI50 (A549 NSCLC): 0.418 µM
- TGI (A549 NSCLC): > 100 µM
- GI50 (ACHN renal): 0.523 µM
- TGI (ACHN renal): > 100 µM
- GI50 (BT-549 breast): 1.06 µM
- TGI (BT-549 breast): 5.22 µM
- GI50 (CAKI-1 renal): 0.775 µM
- TGI (CAKI-1 renal): 45.8 µM
- GI50 (CCRF-CEM leukemia): 0.358 µM
- TGI (CCRF-CEM leukemia): 14 µM
- GI50 (COLO 205 colon): 0.425 µM
- TGI (COLO 205 colon): > 100 µM
- GI50 (DU-145 prostate): 2.03 µM
- TGI (DU-145 prostate): > 100 µM
- GI50 (EKVX NSCLC): 0.977 µM
- TGI (EKVX NSCLC): 9.92 µM
- GI50 (HCC-2998 colon): 10.5 µM
- TGI (HCC-2998 colon): > 100 µM
- GI50 (HCT-15 colon): 0.566 µM
- TGI (HCT-15 colon): > 100 µM
- GI50 (HL-60(TB) leukemia): 44.5 µM
- TGI (HL-60(TB) leukemia): > 100 µM
- GI50 (HOP-62 NSCLC): 1.01 µM
- TGI (HOP-62 NSCLC): 39.1 µM
- GI50 (HOP-92 NSCLC): 0.298 µM
- TGI (HOP-92 NSCLC): 4.96 µM
- GI50 (HS 578T breast): 0.205 µM
- TGI (HS 578T breast): 0.927 µM
- GI50 (HT29 colon): 2.53 µM
- TGI (HT29 colon): > 100 µM
- GI50 (IGROV1 ovarian): 0.229 µM
- TGI (IGROV1 ovarian): 0.894 µM
- GI50 (K-562 leukemia): 1.68 µM
- TGI (K-562 leukemia): > 100 µM
- GI50 (KM12 colon): 0.508 µM
- TGI (KM12 colon): > 100 µM
- GI50 (LOX IMVI melanoma): 1.08 µM
- TGI (LOX IMVI melanoma): 8.87 µM
- GI50 (M14 melanoma): 0.493 µM
- TGI (M14 melanoma): > 100 µM
- GI50 (MALME-3M melanoma): 0.0694 µM
- TGI (MALME-3M melanoma): 0.531 µM
- GI50 (MCF7 breast): 0.184 µM
- TGI (MCF7 breast): 80.3 µM
- GI50 (MDA-MB-231 breast): 0.68 µM
- TGI (MDA-MB-231 breast): > 100 µM
- GI50 (MDA-MB-435 melanoma): 1.58 µM
- TGI (MDA-MB-435 melanoma): 39.9 µM
- GI50 (MDA-MB-468 breast): 0.375 µM
- TGI (MDA-MB-468 breast): 1.2 µM
- GI50 (MOLT-4 leukemia): 0.375 µM
- TGI (MOLT-4 leukemia): 10.5 µM
- GI50 (NCI-H226 lung): 0.54 µM
